From patent US12171876B2, “Cationic lipid compound, composition containing same and use thereof” (HANGZHOU TIANLONG PHARMACEUTICAL CO., LTD., priority 2022, dated 2024)
“And” between values parts separate entries of the source, which are not always exact repeats. Equal values may be shown once. “Also recorded” adds a separate entry of the source.

Legend:
[1] = Particle size and polydispersity index (PDI) of lipid nanoparticles by dynamic light scattering; type: physicochemical; settings: LNP formulation of Example 4, cationic lipid/DSPC/cholesterol/DMG-PEG2000 50:10:38.5:1.5; 25° C., 90° scattering angle
Procedure: The particle size and polydispersity index (PDI) were determined by dynamic light scattering using Malvern laser particle size analyzer.
10 μL of the liposome solution was weighed, diluted to 1 mL with RNase-free deionized water, and added to the sample pool. Each sample was measured in triplicate. The measurement conditions were: 90° scattering angle, and 25° C.

[2] = system: 293T cells; test: Cell survival rate assay (CCK-8); type: cell-based; settings: for Cell survival rate (%) / reduction in the cell survival rate compared with YK-009: 24 hours; for reduction in the cell survival rate compared with YK-009: LNP formulation of Fluc-mRNA
Procedure: (§1) Cell recovery and passage: 293T cells were recovered, cultured in a culture dish, and passaged to the required number of cells.
(§2) Seeding plate: The cells in the culture dish were digested and counted. Cells were spread in a 96-well plate at 10,000 cells per well and in a 12-well plate at 150,000 cells per well. Cells were cultured overnight until the cells adhered to the wall.
A LNP formulation containing 1.5 μg of Fluc-mRNA (the carrier component of the LNP formulation was cationic lipid, neutral lipid, structured lipid and polymer-conjugated lipid with a molar ratio of 50:10:38.5:1.5, wherein the cationic lipid was listed in Table 1) was added to the cell culture medium of a 96-well plate, and further cultivated for 24 hours. 10 μL of CCK-8 solution was then added to each well, and the culture plate was incubated in an incubator for 1 hour. The absorbance at 450 nm was measured by a microplate reader.
To compare the cytotoxicity of LNP formulations prepared from cationic lipid YK-009 and compound 25, we prepared LNP formulations with Fluc-mRNA contents of 1.5 μg, 1.125 μg, 0.75 μg and 0.375 μg (the carrier components of LNP formulations were cationic lipid, neutral lipid, structured lipid and polymer-conjugated lipid with a molar ratio of 50:10:38.5:1.5, wherein the cationic lipid was YK-009 or compound 25). The assay method of cell survival rate was the same as above.

[3] = system: 293T cells; test: Fluorescent detection of Fluc-mRNA (transfection efficiency of LNP formulations in cells); type: cell-based
Procedure: as §1, §2
A LNP formulation containing 0.3 μg of Fluc-mRNA (the carrier components of the LNP formulation were cationic lipid, neutral lipid, structured lipid and polymer-conjugated lipid with a molar ratio of 50:10:38.5:1.5, wherein the cationic lipid was listed in Table 1) was added to the cell culture medium of a 96-well plate, and further incubated for 24 hours. The corresponding reagent was added according to the instructions of the […] Luciferase Assay Kit, and the fluorescence expression intensity of each well was detected by an IVIS fluorescence detection system. This test verified the transfection efficiency of LNP formulations in cells.
In order to further compare the intracellular transfection efficiency of LNP formulations prepared from cationic lipid YK-009 and compound 25, we prepared LNP formulations with Fluc-mRNA contents of 0.3 μg, 0.225 μg, 0.15 μg and 0.075 μg, respectively (the carrier components of the LNP formulation were cationic lipid, neutral lipid, structured lipid and polymer-conjugated lipid with a molar ratio of 50:10:38.5:1.5, wherein the cationic lipid was YK-009 or compound 25). The intracellular transfection activity of the prepared LNP formulations was detected, and the detection method was the same as above.

[4] = system: female BALB/C mice; test: Mouse live imaging test of LNP formulations of Fluc-mRNA; type: in vivo; settings: for expression intensity of Fluc-mRNA in mice over time (in words): 3 h to 72 h after intramuscular injection
Procedure: A LNP formulation containing 10 μg of Fluc-mRNA was intramuscularly injected into female BALB/C mice aged 4-6 weeks and weighing 17-19 g, and at specific time points (3 h, 6 h, 24 h, 48 h and 72 h) after administration, mice were injected intraperitoneally with a fluorescent imaging substrate. The mice moved freely for 5 minutes, and then the average radiation intensity (corresponding to fluorescence expression intensity) of the protein expressed by the mRNA carried by LNP in mice was detected using the IVIS Spectrum small animal live imager.
To compare the protein expression and duration in mice of LNP formulations prepared from cationic lipid YK-009 and compound 25, we prepared LNP formulations with Fluc-mRNA contents of 10 μg, 7.5 μg, 5 μg and 2.5 μg (the carrier components of LNP formulations were cationic lipid, neutral lipid, structured lipid and polymer-conjugated lipid with a molar ratio of 50:10:38.5:1.5, wherein the cationic lipid was YK-009 or compound 25). The mouse live imaging test method was the same as above.

[5] = LNP formulation containing 1.5 μg of Fluc-mRNA
[6] = mRNA transfection, time not stated

CCCCCCCCCCOC(=O)CCCCN(CCO)CCCCCC(=O)OCC(CCCCCCCC)CCCCCCCC [YK-002, 2-octyldecyl 6-((5-(decyloxy)-5-oxopentyl)(2-hydroxyethyl)amino)hexanoate]
PDI (%) [1]: 27.7%
Particle size (nm) [1]: 156.70 nm
Cell survival rate (%) [2, 5]: 89%
reduction in the cell survival rate compared with YK-009 [2]: 11%

CCCCCCCCCCOC(=O)CCCN(CCO)CCCCCC(=O)OCC(CCCCCCCC)CCCCCCCC [YK-009, 2-octyldecyl 6-((4-(decyloxy)-4-oxobutyl)(2-hydroxyethyl)amino)hexanoate]
PDI (%) [1]: 18.2%
Particle size (nm) [1]: 136.44 nm
RLU value / cell transfection efficiency, times that of MC3 ([3]; Fluc-mRNA LNP formulation): 42 times and 40 times
RLU value / cell transfection efficiency, times that of YK-004 ([3]; Fluc-mRNA LNP formulation): 39 times
RLU value / cell transfection efficiency, times that of YK-010 ([3]; Fluc-mRNA LNP formulation): 58 times and ~60 times
RLU value / cell transfection efficiency, times that of compound 27 ([3]; Fluc-mRNA LNP formulation): 13 times
fluorescence absorption, times that of the compound 25 formulation ([3]; LNP formulation containing 0.075 μg of Fluc-mRNA): 3.7 times
fluorescence absorption, times that of the compound 25 formulation ([3]; LNP formulation containing 0.15 μg of Fluc-mRNA): 4.0 times
fluorescence absorption, times that of the compound 25 formulation ([3]; LNP formulation containing 0.225 μg of Fluc-mRNA): 7.0 times
fluorescence absorption, times that of the compound 25 formulation ([3]; LNP formulation containing 0.3 μg of Fluc-mRNA): 4.4 times
cell transfection efficiency, fold compared with compound 25 ([3]; mRNA transfection, content not stated): 7 times
difference in toxicity to transfected cells between YK-009 and YK-010 [2]: ≥ 25%
Cell survival rate (%) ([2]; Fluc-mRNA content 0.375 μg): 100%
Cell survival rate (%) ([2]; Fluc-mRNA content 0.75 μg): 100%
Cell survival rate (%) ([2]; Fluc-mRNA content 1.125 μg): 100%
Cell survival rate (%) ([2]; Fluc-mRNA content 1.5 μg): 100%
Cell survival rate (%) [2, 5]: 100%
reduction in toxicity to transfected cells compared with compound 25 ([2]; mRNA transfection): 9%
toxicity to transfected cells, lower than that of MC3 ([2]; mRNA transfection): 12%
toxicity to transfected cells, lower than that of compound 23 ([2]; mRNA transfection): 13%
toxicity to transfected cells, lower than that of compound 27 ([2]; mRNA transfection): 16%
expression intensity of Fluc-mRNA in mice over time (in words) [4]: highest expression intensity; also recorded: maintain high expression in vivo for a long time
expression in mice, times higher than that for MC3 [4, 6]: more than 25 times
expression in mice, times higher than that for compound 27 [4, 6]: > 6 times
increase in expression in mice compared with compound 25 [4, 6]: 7 fold

CCCCCCCCCCOC(=O)CCCN(CCO)CCCC(=O)OCC(CCCCCCCC)CCCCCCCC [YK-004, 2-octyldecyl 4-((4-(decyloxy)-4-oxobutyl)(2-hydroxyethyl)amino)butyrate]
PDI (%) [1]: 9.7%
Particle size (nm) [1]: 190.65 nm
Cell survival rate (%) [2, 5]: 87%

CCCCCCCCCOC(=O)CCCCCCCN(CCO)CCCCCCCCCC(=O)OC(CCCCCCCC)CCCCCCCC [Compound 23, nonyl 8-((2-hydroxyethyl)(10-((9-heptadecyl)oxy)-10-oxodecyl)amino)octanoate, reference compound]
PDI (%) [1]: 24.4%
Particle size (nm) [1]: 114.12 nm
Cell survival rate (%) [2, 5]: 87%
reduction in the cell survival rate compared with YK-009 [2]: 13%
expression intensity of Fluc-mRNA in mice over time (in words) [4]: decreased rapidly between 6 h and 48 h

CCCCCCCCCCCOC(=O)CCCCCN(CCO)CCCCCCCC(=O)OC(CCCCCCCC)CCCCCCCC [Compound 25, reference compound]
PDI (%) [1]: 23.1%
Particle size (nm) [1]: 117.10 nm
Cell survival rate (%) ([2]; Fluc-mRNA content 0.375 μg): 99%
Cell survival rate (%) ([2]; Fluc-mRNA content 0.75 μg): 97%
Cell survival rate (%) ([2]; Fluc-mRNA content 1.125 μg): 95%
Cell survival rate (%) ([2]; Fluc-mRNA content 1.5 μg): 91%
expression intensity of Fluc-mRNA in mice over time (in words) [4]: decreased rapidly at 6˜48 h

CCCCCCCCCCOC(=O)CCCN(CCO)CCCCC(=O)OCC(CCCCCCCC)CCCCCCCC [YK-006, 2-octyldecyl 5-((4-(decyloxy)-4-oxobutyl)(2-hydroxyethyl)amino)pentanoate]
PDI (%) [1]: 22.9%
Particle size (nm) [1]: 125.35 nm
Cell survival rate (%) [2, 5]: 96%

CCCCCCCCCCOC(=O)CCCCCN(CCO)CCCCCC(=O)OCC(CCCCCCCC)CCCCCCCC [YK-003, 2-octyldecyl 6-((6-(decyloxy)-6-oxohexyl)(2-hydroxyethyl)amino)hexanoate]
PDI (%) [1]: 21.3%
Particle size (nm) [1]: 119.91 nm
Cell survival rate (%) [2, 5]: 84%
expression intensity of Fluc-mRNA in mice over time (in words) [4]: highest expression intensity
expression in mice, times higher than that for MC3 [4, 6]: more than 18 times
expression in mice, times higher than that for compound 23 [4, 6]: > 8 times

CCCCCCCCCCCOC(=O)CCCCCN(CCO)CCCCCC(=O)OCC(CCCCCCCC)CCCCCCCC [YK-007, 2-octyldecyl 6-((2-hydroxyethyl)(6-oxo-6-(undecyloxy)hexyl)amino)hexanoate]
PDI (%) [1]: 13.6%
Particle size (nm) [1]: 178.06 nm
Cell survival rate (%) [2, 5]: 96%

CCCCCCCCCOC(=O)CCCN(CCO)CCCCCC(=O)OCC(CCCCCCCC)CCCCCCCC [YK-008, 2-octyldecyl 6-((4-(nonyloxy)-4-oxobutyl)(2-hydroxyethyl)amino)hexanoate]
PDI (%) [1]: 24.4%
Particle size (nm) [1]: 205.00 nm
Cell survival rate (%) [2, 5]: 91%

CCCCCCCCCCCOC(=O)CCCN(CCO)CCCCCC(=O)OCC(CCCCCCCC)CCCCCCCC [YK-001, 2-octyldecyl 6-((4-(undecyloxy)-4-oxobutyl) (2-hydroxyethyl)amino)hexanoate]
PDI (%) [1]: 10.2%
Particle size (nm) [1]: 164.03 nm
Cell survival rate (%) [2, 5]: 85%

CCCCCCCCCCOC(=O)CCCN(CCO)CCCCCC(=O)OCC(CCCCCC)CCCCCC [YK-011, 2-hexyloctyl 6-((4-(decyloxy)-4-oxobutyl)(2-hydroxyethyl)amino)hexanoate]
PDI (%) [1]: 21.2%
Particle size (nm) [1]: 173.16 nm
Cell survival rate (%) [2, 5]: 98%

CCCCCCCCCCOC(=O)CCCN(CCO)CCCCCC(=O)OCC(CCCCCCC)CCCCCCC [YK-010, 2-heptylnonyl 6-((4-(decyloxy)-4-oxobutyl)(2-hydroxyethyl)amino)hexanoate]
PDI (%) [1]: 19.8%
Particle size (nm) [1]: 124.46 nm
Cell survival rate (%) [2, 5]: 77%
reduction in the cell survival rate compared with YK-009 [2]: 23%

CCCCC/C=C\C/C=C\CCCCCCCCC(CCCCCCCC/C=C\C/C=C\CCCCC)OC(=O)CCCN(C)C [MC3, reference compound]
PDI (%) [1]: 18.3%
Particle size (nm) [1]: 205.20 nm
Cell survival rate (%) [2, 5]: 88%
expression intensity of Fluc-mRNA in mice over time (in words) [4]: very low at each time

CCCCCCCCCCOC(=O)CCCN(CCO)CCCCCCCC(=O)OC(CCCCCCCC)CCCCCCCC [YK-005, 9-heptadecyl 8-((4-(decyloxy)-4-oxobutyl)(2-hydroxyethyl)amino)octanoate]
PDI (%) [1]: 17.3%
Particle size (nm) [1]: 148.75 nm
Cell survival rate (%) [2, 5]: 88%

CCCCCCCCCOC(=O)CCCCCCCN(CCO)CCCCCC(=O)OC(CCCCCCCC)CCCCCCCC [Compound 27, nonyl 8-((2-hydroxyethyl)(6-((9-heptadecyl)oxy)-6-oxohexyl)amino)octanoate, reference compound]
PDI (%) [1]: 13.6%
Particle size (nm) [1]: 178.85 nm
Cell survival rate (%) [2, 5]: 84%
reduction in the cell survival rate compared with YK-009 [2]: 16%
expression intensity of Fluc-mRNA in mice over time (in words) [4]: decreased rapidly between 6 h and 48 h
